Source: patent US12295396B2, “Antagonists of T2R54 and compositions and uses thereof” (Firmenich Incorporated, priority 2018, dated 2025)
Where two headings read alike, the source gives them in different places.

Legend:
hT2R54 = biological target: T1, hT2R54 (Homo sapiens, UniProt P59534); assay: Cell-based assay for measuring hT2R54 inhibition (FLIPR calcium, Fluo4AM, acetaminophen as bitter agonist); settings: read-out: hT2R54 IC50
T1 construct: expressed in transfected cells; it overexpresses a promiscuous G protein
T1 sequence (P59534 1-338): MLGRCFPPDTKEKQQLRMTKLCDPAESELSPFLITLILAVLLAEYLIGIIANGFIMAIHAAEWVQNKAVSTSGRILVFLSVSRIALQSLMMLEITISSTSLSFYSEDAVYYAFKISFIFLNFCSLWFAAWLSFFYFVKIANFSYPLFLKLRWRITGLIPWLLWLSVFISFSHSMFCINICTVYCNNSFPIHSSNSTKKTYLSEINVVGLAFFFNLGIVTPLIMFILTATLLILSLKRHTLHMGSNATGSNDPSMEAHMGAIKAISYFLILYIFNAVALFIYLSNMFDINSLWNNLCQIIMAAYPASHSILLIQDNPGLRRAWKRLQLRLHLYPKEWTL
Method in brief: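 The readout was FLIPR calcium (Fluo4AM, 10 s baseline, 3 min post-addition) in cells stably carrying hT2R54 plus a promiscuous G protein, with host cells lacking hT2R54 as counter-control. Acetaminophen concentration series were tested with and without set test-compound levels. Half-maximal block of the agonist response gave the EC50/IC50.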

T2R64 = biological target: T2, T2R64 (Homo sapiens, UniProt P59538); assay: Antagonist activity against a panel of bitter taste receptors (receptor based assay): T2R64; type: cell-based
T2 sequence (P59538 1-309): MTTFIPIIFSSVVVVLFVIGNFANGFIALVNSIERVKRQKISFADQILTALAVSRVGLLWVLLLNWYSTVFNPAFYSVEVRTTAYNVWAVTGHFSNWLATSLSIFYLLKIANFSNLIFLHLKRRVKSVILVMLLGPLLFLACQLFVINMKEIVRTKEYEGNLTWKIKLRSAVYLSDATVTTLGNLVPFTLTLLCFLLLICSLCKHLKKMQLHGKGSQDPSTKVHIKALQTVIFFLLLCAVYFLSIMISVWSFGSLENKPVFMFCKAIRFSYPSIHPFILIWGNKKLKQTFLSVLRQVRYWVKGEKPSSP
From the text: (§1) Compounds described in this application show potent bitter antagonist effect on T2R54 in receptor based assays. […] Antagonist activity of 1-(6-methyl-2-phenylpyrimidin-4-yl)piperidine-4-carboxamide against a panel of bitter taste receptors is shown in Table 10, with the identity of each T2R as indicated in the left column, and the percentage activity remaining is indicated in the far right column.

T2R75 = biological target: T3, T2R75 (Homo sapiens, UniProt P59540); assay: Antagonist activity against a panel of bitter taste receptors (receptor based assay): T2R75; type: cell-based
T3 sequence (P59540 1-309): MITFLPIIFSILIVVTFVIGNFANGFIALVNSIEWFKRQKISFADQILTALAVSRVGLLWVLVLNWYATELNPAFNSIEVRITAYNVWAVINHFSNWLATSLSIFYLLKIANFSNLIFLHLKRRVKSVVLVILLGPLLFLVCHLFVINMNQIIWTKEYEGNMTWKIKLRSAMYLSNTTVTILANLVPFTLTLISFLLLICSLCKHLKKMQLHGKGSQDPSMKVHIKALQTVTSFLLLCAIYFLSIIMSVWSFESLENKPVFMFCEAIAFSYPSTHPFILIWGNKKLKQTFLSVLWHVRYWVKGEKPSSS
From the text: as §1

T2R61 = biological target: T4, T2R61 (Homo sapiens, UniProt P59537); assay: Antagonist activity against a panel of bitter taste receptors (receptor based assay): T2R61; type: cell-based
T4 sequence (P59537 1-309): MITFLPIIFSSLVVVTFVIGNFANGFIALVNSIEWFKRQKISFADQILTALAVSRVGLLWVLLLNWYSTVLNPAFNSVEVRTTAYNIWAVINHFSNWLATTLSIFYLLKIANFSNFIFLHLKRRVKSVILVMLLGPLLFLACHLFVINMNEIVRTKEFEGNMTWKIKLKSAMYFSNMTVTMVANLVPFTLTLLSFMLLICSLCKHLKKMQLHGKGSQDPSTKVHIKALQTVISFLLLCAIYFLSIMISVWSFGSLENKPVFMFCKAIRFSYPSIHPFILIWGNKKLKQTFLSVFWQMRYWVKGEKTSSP
From the text: as §1

[1] = system: bitterness of epigallocatechin gallate (EGCg); assay: Sensory experiments: taste tests comparing EGCg alone with EGCg and a bitter blocker; type: in vivo, human
Description: To determine the effectiveness of an individual antagonist in blocking the bitterness, taste tests were performed comparing epigallocatechin gallate (EGCg) alone, which is known to activate T2R54 with EGCg and a bitter blocker described herein, namely compound 22 (Table 2).

[2] = Table 2, cells stably expressing hT2R54 and a promiscuous G protein

Structure (SMILES)	IC50 (hT2R54; Table 9)	further results
CC(=O)c1cc2c(cc1NC(=O)CN1CCN(C(=O)CC(C)C)CC1)OCO2 [Cmpd 1, N-(6-Acetylbenzo[d][1,3]dioxol-5-yl)-2-(4-(3-methylbutanoyl)piperazin-1-yl)acetamide]		IC50 (hT2R54; [2]): 16 nM; bitter blocking effect on T2R64 (T2R64): significant bitter blocking effect; bitter blocking effect on T2R75 (T2R75): significant bitter blocking effect; bitter blocking effect on T2R61 (T2R61): significant bitter blocking effect
CC(=O)c1cc2c(cc1NC(=O)CN1CCN(C(=O)C3CCCO3)CC1)OCO2 (stereo not drawn) [compound 22]		IC50 (hT2R54; [2]): 21 nM; Total (times sample selected as more bitter) ([1]; 600 uM EGCG + 15 uM compound versus 600 uM EGCG alone, 56 in total, p-value 0.044): 20; reduction of EGCg bitterness ([1]; taste tests, EGCg alone versus EGCg with bitter blocker): has the ability to reduce EGCg bitterness
CC(=O)c1cc2c(cc1NC(=O)CC1CCCC1)OCO2 [compound 517]	414 nM	
CC(=O)c1cc2c(cc1NC(=O)Cc1c(C)noc1C)OCO2 [compound 518]	3800 nM	
CC(=O)c1cc2c(cc1NC(=O)CC1CCCN(C(=O)OC(C)(C)C)C1)OCO2 (stereo not drawn) [compound 519]	900 nM	
COc1cc2c(cc1NC(=O)CC1CCCC1)OCO2 [compound 520]	308 nM	
COc1cc2c(cc1NC(=O)CC1CCCCO1)OCO2 (stereo not drawn) [compound 521]	2260 nM	
COc1ccccc1CC(=O)Nc1cc2c(cc1OC)OCO2 [compound 522]	886 nM	
CC(=O)c1cc2c(cc1NC(=O)Cc1ccco1)OCO2 [compound 523]	2310 nM	
COc1cc2c(cc1NC(=O)Cc1ccsc1)OCO2 [compound 524]	868 nM	
COc1cc2c(cc1NC(=O)C(C)C1CCN(C(=O)OC(C)(C)C)CC1)OCO2 (stereo not drawn) [compound 525]	3000 nM	
COC(=O)c1cc2c(cc1NC(=O)CC1CCN(C(=O)OC(C)(C)C)CC1)OCO2 [compound 528]	~1000 nM	
COC(=O)c1cc2c(cc1NC(=O)CC1CCOCC1)OCCO2 [compound 529]	12000 nM	
